IC50 data for one molecule are collected here from BindingDB's records for doi:10.1021/jm990277d (Warner-Lambert, 2000).

This assay can be described thus: Inhibition of [3H]- pentazocine binding against guinea pig brain Sigma opioid receptor type 1.

Turning to `O=C1COc2cc(CN3CCN(c4ccc(Cl)cc4)CC3)ccc2N1` [7-[4-(4-Chloro-phenyl)-piperazin-1-ylmethyl]-4H-benzo[1,4]oxazin-3-one], the IC50 is 285 nM.

As usually defined, the IC50 is the concentration that inhibits the measured activity by half. A low value points to greater potency.
